pIC50: −log10 of the molar value.
Tests used:
human TRPA1 ion channel = target: T1, human TRPA1 ion channel (Homo sapiens, UniProt O75762); assay: Assay A: TRPA1 assay (FLIPR, AITC-induced intracellular calcium in HEK293 cells); format: cell-based; settings: HEK293 cells over-expressing human TRPA1, AITC 10 μM, FLIPRtetra; read-out: hTRPA1 IC50
T1 construct: host or cells: HEK293
Experimental: A human HEK293 cell line over-expressing the human TRPA1 ion channel (Perkin Elmer, Product No. AX-004-PCL) is used as a test system for compound efficacy and potency. Compound activity is determined by measuring the effect of compounds on intracellular calcium concentration induced by AITC (Allylisothiocyanat) agonism in a FLIPRtetra system (Molecular Devices).
The cells are obtained as frozen cells in cryo-vials and stored until use at −150° C. Cells are grown in culture medium (MEM/EBSS medium with 10% FCS and 0.4 mg/ML Geneticin). […] For sub-culturing cells are detached from flasks by Versene. At the day before the assay, cells are detached, washed twice with medium (MEM/EBSS medium with 10% FCS) and 20000 cells in 20 μl/well are seeded to Poly D-Lysin biocoated 384-well plates (black, clear bottom, Cat. 356697) from Corning. Plates are incubated for 24 hours at 37° C./5% CO2 before use in the assay.
The test compounds are dissolved in 100% DMSO at a concentration of 10 mM and in a first step diluted in DMSO to a concentration of 5 mM, followed by serial dilution steps in 100% DMSO. Dilution factor and number of dilution steps may vary according to needs. Typically 8 different concentrations by 1:5 dilutions are prepared, further intermediate dilutions (1:20) of the substances are carried out with HBSS/HEPES buffer (1×HEPES, Cat. 14065 from Gibco, 20 mM HEPES, Cat. 83264 from SIGMA, 0.1% BSA Cat. 11926 from Invitrogen, pH 7.4
At the assay day cells are washed 3× with assay puffer, 20 μL buffer remaining in the wells after washing. 10 μL Ca6 kit (Cat. R8191 Molecular Devices) loading buffer in HBSS/HEPES is added to the cells and the plates are incubated with lid for 120 minutes at 37°/5% CO2. […] Finally 10 μL of the agonist AITC 50 μM dissolved in HBSS/HEPES buffer/0.05% DMSO (final concentration 10 μM) is added to the wells followed by an additional read on the FLIPRtetra device for 10 minutes. The area under the signal curve (AUC) after AITC addition is used for IC50/% inhibition calculations
Data Evaluation and Calculation:
Each assay microtiter plate contains wells with vehicle (1% DMSO) controls instead of compound as controls for AITC induced luminescence (100% CTL; high controls) and wells with vehicle controls without AITC as controls for non-specific changes in luminescence (0% CTL; low controls).
The analysis of the data is performed by the calculation of the area under signal curve of the individual wells. Based on this values the % value for the measurement of each substance concentration is calculated (AUC(sample)−AUC(low))*100/(AUC(high)−AUC(low)) using MegaLab software (in house development). The IC50 values are calculated from the % control values using MegaLab software. Calculation: [y=(a−d)/(1+(x/c)^b)+d], a=low value, d=high value; x=conc M; c=IC50 M; b=hill; y=% ctrl

[1] = Assay B: Microsomal clearance; format: in vitro ADME, human; settings: pooled liver microsomes, 1 μM test compound, 37° C., NADPH
Experimental: Assay B: Microsomal Clearance:
The metabolic degradation of the test compound is assayed at 37° C. with pooled liver microsomes. The final incubation volume of 100 μl per time point contains TRIS buffer pH 7.6 at RT (0.1 M), magnesium chloride (5 mM), microsomal protein (1 mg/ml) and the test compound at a final concentration of 1 μM.
Following a short preincubation period at 37° C., the reactions are initiated by addition of beta-nicotinamide adenine dinucleotide phosphate, reduced form (NADPH, 1 mM) and terminated by transferring an aliquot into solvent after different time points (0, 5, 15, 30, 60 min). Additionally, the NADPH-independent degradation is monitored in incubations without NADPH, terminated at the last time point. The [%] remaining test compound after NADPH independent incubation is reflected by the parameter c(control) (metabolic stability). The quenched incubations are pelleted by centrifugation (10000 g, 5 min). An aliquot of the supernatant is assayed by LC-MS/MS for the amount of parent compound. The half-life (t½ INVITRO) is determined by the slope of the semilogarithmic plot of the concentration-time profile.
The intrinsic clearance (CL_[…]) is calculated by considering the amount of protein in the incubation: CL_[…] [μl/min/mg protein]=(Ln 2/(half-life [min]*protein content [mg/ml]))*1000 CL_[…]_INVIVO [ml/min/kg]=(CL_[…] [μL/min/mg protein]×MPPGL [mg protein/g liver]×liver factor [g/kg bodyweight])/1000 Qh[%]=CL[ml/min/kg]/hepatic blood flow [ml/min/kg])
(§1) Hepatocellularity, human: 120×10e6 cells/g liver
(§2) Liver factor, human: 25.7 g/kg bodyweight
(§3) Blood flow, human: 21 ml/(min×kg)

[2] = Assay C: Hepatocyte clearance; format: in vitro ADME, human; settings: hepatocyte suspension, 1 μM test compound, 5% species serum, six hours
Experimental: Assay C: Hepatocyte Clearance
The metabolic degradation of the test compound is assayed in a hepatocyte suspension. Hepatocytes (cryopreserved) are incubated in Dulbecco's modified eagle medium (supplemented with 3.5 μg glucagon/500 mL, 2.5 mg insulin/500 mL and 3.75 mg/500 mL hydrocortison) containing 5% species serum.
The cells are incubated for six hours (incubator, orbital shaker) and samples (25 μl) are taken at 0, 0.5, 1, 2, 4 and 6 hours. Samples are transferred into acetonitrile and pelleted by centrifugation (5 min). The supernatant is transferred to a new 96-deepwell plate, evaporated under nitrogen and resuspended.
Decline of Parent Compound is Analyzed by HPLC-MS/MS
CLint is calculated as follows CL_[…]=Dose/AUC=(CO/CD)/(AUD+clast/k)×1000/60. C0: initial concentration in the incubation [μM], CD: cell density of vital cells [10e6 cells/mL], AUD: area under the data [μM×h], clast: concentration of last data point [μM], k: slope of the regression line for parent decline [h−1].
The calculated in vitro hepatic intrinsic clearance can be scaled up to the intrinsic in vivo hepatic Clearance and used to predict hepatic in vivo blood clearance (CL) by the use of a liver model (well stirred model). CL_[…]_INVIVO [ml/min/kg]=(CL_[…] [μL/min/10e6 cells]×hepatocellularity [10e6 cells/g liver]×liver factor [g/kg bodyweight])/1000 CL[ml/min/kg]=CL_[…]_INVIVO [ml/min/kg]×hepatic blood flow [ml/min/kg]/(CL_[…]_INVIVO [ml/min/kg]+hepatic blood flow [ml/min/kg]) Qh[%]=CL[ml/min/kg]/hepatic blood flow [ml/min/kg])
as §1, §2, §3

T1 sequence (O75762 whole entry): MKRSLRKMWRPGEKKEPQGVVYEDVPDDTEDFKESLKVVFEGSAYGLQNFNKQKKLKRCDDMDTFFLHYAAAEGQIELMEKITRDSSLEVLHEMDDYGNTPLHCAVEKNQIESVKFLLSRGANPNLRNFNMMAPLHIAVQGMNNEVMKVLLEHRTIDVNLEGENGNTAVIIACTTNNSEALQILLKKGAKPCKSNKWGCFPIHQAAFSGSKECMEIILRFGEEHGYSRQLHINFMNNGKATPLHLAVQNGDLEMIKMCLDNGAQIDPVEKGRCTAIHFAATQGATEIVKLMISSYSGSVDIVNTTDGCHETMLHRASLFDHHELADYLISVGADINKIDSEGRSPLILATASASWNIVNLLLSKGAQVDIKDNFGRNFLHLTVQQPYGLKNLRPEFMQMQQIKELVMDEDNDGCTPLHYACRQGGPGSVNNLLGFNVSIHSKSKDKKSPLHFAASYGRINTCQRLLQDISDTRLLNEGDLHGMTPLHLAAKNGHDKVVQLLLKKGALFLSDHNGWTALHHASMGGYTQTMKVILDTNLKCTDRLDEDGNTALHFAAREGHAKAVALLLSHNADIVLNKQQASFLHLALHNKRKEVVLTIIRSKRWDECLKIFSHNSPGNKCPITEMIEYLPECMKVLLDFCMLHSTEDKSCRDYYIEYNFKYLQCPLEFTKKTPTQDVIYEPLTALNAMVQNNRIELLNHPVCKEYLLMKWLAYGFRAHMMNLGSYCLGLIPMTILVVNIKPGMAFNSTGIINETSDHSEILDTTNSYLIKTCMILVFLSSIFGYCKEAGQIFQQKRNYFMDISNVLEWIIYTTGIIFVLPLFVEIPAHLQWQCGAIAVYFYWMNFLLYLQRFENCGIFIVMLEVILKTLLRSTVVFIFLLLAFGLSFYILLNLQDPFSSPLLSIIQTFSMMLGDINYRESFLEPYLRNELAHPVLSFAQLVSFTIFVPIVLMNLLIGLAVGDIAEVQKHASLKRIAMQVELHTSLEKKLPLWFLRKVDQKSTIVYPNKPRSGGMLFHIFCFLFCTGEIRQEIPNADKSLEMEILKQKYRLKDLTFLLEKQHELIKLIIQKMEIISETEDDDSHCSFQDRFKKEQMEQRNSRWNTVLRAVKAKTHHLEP

Row | SMILES | pIC50 (human TRPA1 ion channel) | human LM [% Qh] [1] | human Hepatocytes [% Qh] [2]
1 | NC(=O)c1csc2ncn(Cc3nnn(C[C@H](O)c4ccc(Cl)cc4)n3)c(=O)c12 [Example 1, 3-({2-[(2R)-2-(4-chlorophenyl)-2-hydroxyethyl]-2H-1,2,3,4-tetrazol-5-yl}methyl)-4-oxo-3H,4H-thieno[2,3-d]pyrimidine-5-carboxamide] | 7.55 | <23 % Qh | <4 % Qh
2 | NC(=O)c1csc2ncn(Cc3nnn(C[C@H](O)c4cc5ccc(F)cc5s4)n3)c(=O)c12 [Example 2] | – | 33 % Qh | 19 % Qh
3 | NC(=O)c1csc2ncn(Cc3nnn(C[C@H](O)c4cc5cc(Cl)ccc5o4)n3)c(=O)c12 [Example 3] | – | 27 % Qh | 26 % Qh
4 | NC(=O)c1csc2ncn(Cc3nnn(C[C@H](O)c4ccc5oc(F)cc5c4)n3)c(=O)c12 [Example 4] | – | <23 % Qh | 6 % Qh
5 | NC(=O)c1csc2ncn(Cc3nnn(C[C@H](O)c4cc5ccccc5s4)n3)c(=O)c12 [Example 5] | – | 28 % Qh | 20 % Qh
6 | NC(=O)c1csc2ncn(Cc3nnn(C[C@H](O)c4cc5cc(F)ccc5o4)n3)c(=O)c12 [Example 6] | – | <23 % Qh | 26 % Qh
7 | NC(=O)c1csc2ncn(Cc3nnn(C[C@H](O)c4cc(Cl)c(Cl)s4)n3)c(=O)c12 [Example 7] | – | 34 % Qh | 41 % Qh
8 | NC(=O)c1csc2ncn(Cc3nnn(C[C@H](O)c4cc5cc(Cl)c(F)cc5o4)n3)c(=O)c12 [Example 8] | 7.59 | 26 % Qh | 20 % Qh
9 | NC(=O)c1csc2ncn(Cc3nnn(C[C@H](O)c4cc5ccccc5o4)n3)c(=O)c12 [Example 9] | 7.54 | <23 % Qh | 14 % Qh
10 | Cc1ccc([C@@H](O)Cn2nnc(Cn3cnc4scc(C(N)=O)c4c3=O)n2)cc1 [Example 10] | 7.51 | <23 % Qh | 8 % Qh
11 | NC(=O)c1csc2ncn(Cc3nnn(C[C@H](O)c4ccc(Cl)s4)n3)c(=O)c12 [Example 11] | 7.51 | <23 % Qh | 14 % Qh
12 | NC(=O)c1csc2ncn(Cc3nnn(C[C@H](O)c4ccc(Br)cc4)n3)c(=O)c12 [Example 12] | 7.47 | <23 % Qh | <4 % Qh
13 | NC(=O)c1csc2ncn(Cc3nnn(C[C@H](O)c4cc5cc(F)c(F)cc5o4)n3)c(=O)c12 [Example 13] | 7.43 | <23 % Qh | 10 % Qh
14 | NC(=O)c1csc2ncn(Cc3nnn(C[C@H](O)c4cc5cccc(F)c5o4)n3)c(=O)c12 [Example 14] | 7.39 | <23 % Qh | 14 % Qh
15 | NC(=O)c1csc2ncn(Cc3nnn(C[C@H](O)c4cc5cc(F)c(Cl)cc5o4)n3)c(=O)c12 [Example 15] | 7.19 | <23 % Qh | 30 % Qh
16 | N#Cc1cc2ccc([C@@H](O)Cn3nnc(Cn4cnc5scc(C(N)=O)c5c4=O)n3)cc2o1 [Example 16] | 7.15 | <23 % Qh | 19 % Qh
17 | COc1ccc([C@@H](O)Cn2nnc(Cn3cnc4scc(C(N)=O)c4c3=O)n2)cc1 [Example 17] | 6.88 | <23 % Qh | 18 % Qh
18 | N#Cc1ccc([C@@H](O)Cn2nnc(Cn3cnc4scc(C(N)=O)c4c3=O)n2)s1 [Example 18] | 6.84 | <23 % Qh | <4 % Qh

From patent US11661430B2, “Tetrazole derivatives as TRPA1 inhibitors” (Boehringer Ingelheim International GmbH, priority 2020, dated 2023)
